Data taken from patent US9371320B2, “Heterocyclic compound” (TAKEDA PHARMACEUTICAL COMPANY LIMITED, priority 2012, dated 2016).
Like-named read-outs stand apart in the source and are kept apart here.

Experiments:
JAK1 = biological target: T1, JAK1 (Homo sapiens, UniProt P23458); experiment: JAK1 enzyme inhibition test (LANCE method); format: biochemical; conditions: for inhibition at 1 µM: test compound 1 μM, read-out: Inhibitory rate (%) JAK1 1 μM; for inhibition at 10 µM: read-out: Inhibitory rate (%) JAK1 10 μM
T1 construct: purchased Invitrogen
Experimental: JAK1 Enzyme Inhibition Test
(§1) JAK1 enzyme inhibitory activity of test compounds was measured by LANCE method (PerkinElmer). First, a test compound diluted with assay buffer (50 mM HEPES (pH=7.5), 10 mM MgCl2, 1 mM EGTA, 2 mM DTT, 0.01% Tween20, 0.01% BSA) was added to 384-well plate at 2 μL each. Then, a JAK1 (Invitrogen) solution and a fluorescence-labeled peptide substrate (ULight-JAK1, PerkinElmer) solution diluted with assay buffer at 187.5 ng/mL and 300 nM, respectively were added at 2 μL each. Then, enzyme reaction was started by adding 2 μL each of ATP solution prepared with assay buffer at 150 μM. After the reaction at room temperature for 1 hr, Detection Buffer (PerkinElmer) prepared to be 20 mM EDTA, 4 nM europium-labeled anti-phosphotyrosine antibody (PerkinElmer) was added at 6 μL each. After standing at room temperature for 1 hr, fluorescence intensity (excitation wavelength 340 nm, fluorescence wavelength 665 nm, delay time 100 microsecond) was measured by a plate reader, Envision (PerkinElmer). The inhibitory activity of each compound was calculated as relative value where fluorescence intensity of a well without enzyme is considered as 100% inhibition.

Tyk2 = biological target: T2, Tyk2 (Homo sapiens, UniProt P29597); experiment: Tyk2 enzyme inhibition test (LANCE method); format: biochemical; conditions: for inhibition at 1 µM: test compound 1 μM, read-out: Inhibitory rate (%) Tyk2 1 μM
T2 construct: purchased Invitrogen
Experimental: Tyk2 Enzyme Inhibition Test
as §1, with “Tyk2 enzyme” for “JAK1 enzyme”, “a Tyk2” for “a JAK1”, “at 375” for “at 187.5”, “at 30” for “at 150”

[1] = test compound 10 μM (Ex. 182-220), beside Tyk2 1 μM

T1 sequence (P23458 whole entry): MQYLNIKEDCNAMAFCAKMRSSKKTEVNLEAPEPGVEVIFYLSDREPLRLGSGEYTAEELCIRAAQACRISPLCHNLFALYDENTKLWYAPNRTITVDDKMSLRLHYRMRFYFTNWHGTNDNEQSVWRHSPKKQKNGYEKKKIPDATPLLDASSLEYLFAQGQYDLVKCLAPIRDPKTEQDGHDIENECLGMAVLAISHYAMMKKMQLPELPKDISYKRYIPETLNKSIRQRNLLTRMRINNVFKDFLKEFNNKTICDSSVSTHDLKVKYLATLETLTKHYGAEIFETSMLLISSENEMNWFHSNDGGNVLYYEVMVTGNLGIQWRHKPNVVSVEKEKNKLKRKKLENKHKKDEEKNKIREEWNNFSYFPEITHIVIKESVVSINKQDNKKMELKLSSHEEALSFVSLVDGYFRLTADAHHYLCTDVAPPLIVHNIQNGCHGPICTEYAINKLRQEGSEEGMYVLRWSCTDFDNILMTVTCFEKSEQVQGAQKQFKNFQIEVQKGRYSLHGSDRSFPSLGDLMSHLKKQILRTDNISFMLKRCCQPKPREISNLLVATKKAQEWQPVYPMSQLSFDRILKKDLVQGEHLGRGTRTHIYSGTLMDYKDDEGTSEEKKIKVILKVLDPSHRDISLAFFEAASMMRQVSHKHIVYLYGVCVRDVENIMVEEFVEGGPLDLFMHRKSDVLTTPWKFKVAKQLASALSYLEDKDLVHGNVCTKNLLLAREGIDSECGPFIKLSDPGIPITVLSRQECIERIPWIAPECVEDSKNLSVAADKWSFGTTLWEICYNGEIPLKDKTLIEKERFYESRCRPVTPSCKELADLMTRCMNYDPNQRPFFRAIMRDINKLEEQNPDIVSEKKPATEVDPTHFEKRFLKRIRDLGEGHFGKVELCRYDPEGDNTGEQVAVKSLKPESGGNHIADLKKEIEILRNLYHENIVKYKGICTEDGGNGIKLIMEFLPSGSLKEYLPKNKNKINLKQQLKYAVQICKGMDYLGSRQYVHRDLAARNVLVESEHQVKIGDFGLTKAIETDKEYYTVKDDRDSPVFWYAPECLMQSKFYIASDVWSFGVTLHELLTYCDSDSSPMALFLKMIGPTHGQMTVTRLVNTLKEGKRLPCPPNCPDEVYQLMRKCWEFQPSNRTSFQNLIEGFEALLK
T2 sequence (P29597 whole entry): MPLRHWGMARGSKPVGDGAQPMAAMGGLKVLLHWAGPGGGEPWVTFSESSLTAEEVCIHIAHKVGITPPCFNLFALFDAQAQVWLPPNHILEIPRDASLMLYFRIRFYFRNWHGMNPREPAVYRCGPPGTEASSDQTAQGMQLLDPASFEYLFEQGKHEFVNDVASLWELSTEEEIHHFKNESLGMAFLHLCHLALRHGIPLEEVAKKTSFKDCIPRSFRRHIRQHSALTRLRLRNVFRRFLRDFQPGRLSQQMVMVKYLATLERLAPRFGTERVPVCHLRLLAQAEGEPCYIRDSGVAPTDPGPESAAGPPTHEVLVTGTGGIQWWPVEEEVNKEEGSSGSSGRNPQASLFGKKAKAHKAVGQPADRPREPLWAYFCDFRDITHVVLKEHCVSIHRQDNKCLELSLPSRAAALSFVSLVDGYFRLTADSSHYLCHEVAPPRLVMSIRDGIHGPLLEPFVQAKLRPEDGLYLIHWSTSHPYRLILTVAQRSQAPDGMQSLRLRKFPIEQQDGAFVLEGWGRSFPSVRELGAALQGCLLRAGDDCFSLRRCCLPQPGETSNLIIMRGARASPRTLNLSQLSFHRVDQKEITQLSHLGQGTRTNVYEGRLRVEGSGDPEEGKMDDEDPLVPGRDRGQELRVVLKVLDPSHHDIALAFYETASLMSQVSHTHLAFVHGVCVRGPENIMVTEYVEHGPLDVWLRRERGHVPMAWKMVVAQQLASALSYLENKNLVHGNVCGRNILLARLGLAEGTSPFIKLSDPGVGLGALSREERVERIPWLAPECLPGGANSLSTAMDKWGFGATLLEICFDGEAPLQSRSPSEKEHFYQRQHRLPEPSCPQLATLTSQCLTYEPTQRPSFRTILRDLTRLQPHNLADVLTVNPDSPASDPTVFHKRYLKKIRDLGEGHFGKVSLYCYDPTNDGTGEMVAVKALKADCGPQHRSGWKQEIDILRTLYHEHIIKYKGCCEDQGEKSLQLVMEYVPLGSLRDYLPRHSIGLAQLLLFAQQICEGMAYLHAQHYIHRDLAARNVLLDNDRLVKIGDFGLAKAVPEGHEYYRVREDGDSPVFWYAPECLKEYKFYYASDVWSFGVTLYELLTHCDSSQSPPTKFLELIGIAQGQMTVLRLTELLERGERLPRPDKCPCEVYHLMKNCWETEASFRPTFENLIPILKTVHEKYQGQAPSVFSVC

Row | SMILES | inhibition at 1 µM (JAK1) [%] | inhibition at 1 µM (Tyk2) [%] | inhibition at 10 µM (JAK1; [1]) [%] | inhibition at 10 µM (JAK1; test compound 10 μM) [%] | inhibition at 10 µM (Tyk2; test compound 10 μM, read-out: Inhibitory rate (%) Tyk2 10 μM) [%]
1 | O=c1[nH]cc(Cl)c2c1c(-c1cccc(OCCO)c1)nn2-c1c(F)cccc1F [Example 168, 7-chloro-1-(2,6-difluorophenyl)-3-(3-(2-hydroxyethoxyl)phenyl)-1,5-dihydro-4H-pyrazolo[4,3-c]pyridin-4-one] | 46 | 97 |  |  | 
2 | NC(=O)c1cc(-c2nn([C@H]3CC[C@@H](O)CC3)c3cc[nH]c(=O)c23)cs1 [Example 184, 4-(1-(cis-4-hydroxycyclohexyl)-4-oxo-4,5-dihydro-1H-pyrazolo[4,3-c]pyridin-3-yl)thiophene-2-carboxamide] |  | 99 | 100 |  | 
3 | NS(=O)(=O)c1ccc(-c2nn(C3CCCCC3)c3cc[nH]c(=O)c23)cc1 [Example 6, 4-(1-cyclohexyl-4-oxo-4,5-dihydro-1H-pyrazolo[4,3-c]pyridin-3-yl)benzenesulfonamide] | 98 | 99 |  |  | 
4 | O=c1[nH]ccc2c1c(-c1ccsc1)cn2C1CCCC1 [Example 5, 1-cyclopentyl-3-(3-thienyl)-1,5-dihydro-4H-pyrrolo[3,2-c]pyridin-4-one] | 97 | 96 |  |  | 
5 | N#Cc1c[nH]c(=O)c2c(-c3csc(C(N)=O)c3)cn(C3CCCC3)c12 [Example 33, 4-(7-cyano-1-cyclopentyl-4-oxo-4,5-dihydro-1H-pyrrolo[3,2-c]pyridin-3-yl)thiophene-2-carboxamide] | 99 | 99 |  |  | 
6 | COC(=O)c1cc(-c2cn(C3CCCC3)c3c(C#N)c[nH]c(=O)c23)cs1 [Example 76, methyl 4-(7-cyano-1-cyclopentyl-4-oxo-4,5-dihydro-1H-pyrrolo[3,2-c]pyridin-3-yl)thiophene-2-carboxylate] | 92 | 99 |  |  | 
7 | N#Cc1c[nH]c(=O)c2c(-c3cnn(C4CCCC4)c3)cn(C3CCCC3)c12 [Example 137, 1-cyclopentyl-3-(1-cyclopentyl-1H-pyrazol-4-yl)-4-oxo-4,5-dihydro-1H-pyrrolo[3,2-c]pyridine-7-carbonitrile] | 77 | 98 |  |  | 
8 | O=C1NCCN1c1ccc(-c2nn(-c3c(F)cccc3F)c3c(Cl)c[nH]c(=O)c23)cc1 [Example 225, 7-chloro-1-(2,6-difluorophenyl)-3-(4-(2-oxoimidazolidin-1-yl)phenyl)-1,5-dihydro-4H-pyrazolo[4,3-c]pyridin-4-one] | 58 | 99 |  |  | 
9 | N#Cc1ccc(-c2nn(C3CCCC3)c3cc[nH]c(=O)c23)cc1 [Example 201, 4-(1-cyclopentyl-4-oxo-4,5-dihydro-1H-pyrazolo[4,3-c]pyridin-3-yl)benzonitrile] |  | 97 | 96 |  | 
10 | NS(=O)(=O)c1ccc(-c2cn(C3CCOCC3)c3cc[nH]c(=O)c23)cc1 [Example 16, 4-(4-oxo-1-(tetrahydro-2H-pyran-4-yl)-4,5-dihydro-1H-pyrrolo[3,2-c]pyridin-3-yl)benzenesulfonamide] | 93 | 88 |  |  | 
11 | NC(=O)Cn1cc(-c2nn(-c3c(F)cccc3F)c3c(Br)c[nH]c(=O)c23)cn1 [Example 175, 2-(4-(7-bromo-1-(2,6-difluorophenyl)-4-oxo-4,5-dihydro-1H-pyrazolo[4,3-c]pyridin-3-yl)-1H-pyrazol-1-yl)acetamide] | 86 | 100 |  |  | 
12 | NS(=O)(=O)c1ccc(-c2cn(C3CCCC3)c3cc[nH]c(=O)c23)cc1 [Example 2, 4-(1-cyclopentyl-4-oxo-4,5-dihydro-1H-pyrrolo[3,2-c]pyridin-3-yl)benzenesulfonamide] | 99 | 97 |  |  | 
13 | O=C(O)c1cc(-c2nn(C3CCOCC3)c3cc[nH]c(=O)c23)cs1 [Example 23, 4-(4-oxo-1-(tetrahydro-2H-pyran-4-yl)-4,5-dihydro-1H-pyrazolo[4,3-c]pyridin-3-yl)thiophene-2-carboxylic acid] | 98 | 98 |  |  | 
14 | CCC(COC)n1cc(-c2ccc(C(N)=O)cc2)c2c(=O)[nH]ccc21 (stereo not shown) [Example 26, 4-(1-(1-methoxybutan-2-yl)-4-oxo-4,5-dihydro-1H-pyrrolo[3,2-c]pyridin-3-yl)benzamide] | 20 | 41 |  |  | 
15 | NC(=O)c1cc(-c2nn(C3CCC(O)(c4ccccc4)CC3)c3cc[nH]c(=O)c23)cs1 (stereo not shown) [Example 172, 4-(1-(4-hydroxy-4-phenylcyclohexyl)-4-oxo-4,5-dihydro-1H-pyrazolo[4,3-c]pyridin-3-yl)thiophene-2-carboxamide] | 99 | 97 |  |  | 
16 | NS(=O)(=O)c1ccc(-c2cn([C@H]3CC[C@@H](O)CC3)c3cc[nH]c(=O)c23)cc1 [Example 32, 4-(1-(cis-4-hydroxycyclohexyl)-4-oxo-4,5-dihydro-1H-pyrrolo[3,2-c]pyridin-3-yl)benzenesulfonamide] | 98 | 95 |  |  | 
17 | O=c1[nH]cc(Cl)c2c1c(-c1ccc(N3CCOCC3)nc1)nn2-c1c(F)cccc1F [Example 164, 7-chloro-1-(2,6-difluorophenyl)-3-(6-(morpholin-4-yl)pyridin-3-yl)-1,5-dihydro-4H-pyrazolo[4,3-c]pyridin-4-one] | 66 | 99 |  |  | 

More lines, now with the values ahead:

Row | inhibition at 1 µM (JAK1) [%] | inhibition at 1 µM (Tyk2) [%] | inhibition at 10 µM (JAK1; [1]) [%] | inhibition at 10 µM (JAK1; test compound 10 μM) [%] | inhibition at 10 µM (Tyk2; test compound 10 μM, read-out: Inhibitory rate (%) Tyk2 10 μM) [%] | SMILES
18 | 96 | 99 |  |  |  | CC(=O)N1CCN(c2ccc(-c3nn(-c4c(F)cccc4F)c4cc[nH]c(=O)c34)cc2)CC1 [Example 279, 3-(4-(4-acetylpiperazin-1-yl)phenyl)-1-(2,6-difluorophenyl)-1,5-dihydro-4H-pyrazolo[4,3-c]pyridin-4-one]
19 | 97 | 92 |  |  |  | CC[C@@H](COC)n1nc(-c2csc(C(N)=O)c2)c2c(=O)[nH]ccc21 [Example 262, 4-(1-((2S)-1-methoxybutan-2-yl)-4-oxo-4,5-dihydro-1H-pyrazolo[4,3-c]pyridin-3-yl)thiophene-2-carboxamide]
20 | 96 | 96 |  |  |  | Cc1c[nH]c(=O)c2c(-c3csc(C(N)=O)c3)nn(C3CCCC3)c12 [Example 281, 4-(1-cyclopentyl-7-methyl-4-oxo-4,5-dihydro-1H-pyrazolo[4,3-c]pyridin-3-yl)thiophene-2-carboxamide]
21 |  |  |  | 12 | 25 | CNC(=O)c1ccc(F)c(-c2nn(-c3c(F)cccc3F)c3cc[nH]c(=O)c23)c1 [Example 272, 3-(1-(2,6-difluorophenyl)-4-oxo-4,5-dihydro-1H-pyrazolo[4,3-c]pyridin-3-yl)-4-fluoro-N-methylbenzamide]
22 | 52 | 76 |  |  |  | CC(C)(C)n1nc(-c2ccc(N3CCOCC3)cc2)c2c(=O)[nH]ccc21 [Example 243, 1-tert-butyl-3-(4-(morpholin-4-yl)phenyl)-1,5-dihydro-4H-pyrazolo[4,3-c]pyridin-4-one]
23 | 34 | 77 |  |  |  | CNC(=O)c1cc(F)cc(-c2nn(-c3c(F)cccc3F)c3cc[nH]c(=O)c23)c1 [Example 274, 3-(1-(2,6-difluorophenyl)-4-oxo-4,5-dihydro-1H-pyrazolo[4,3-c]pyridin-3-yl)-5-fluoro-N-methylbenzamide]
24 | 88 | 99 |  |  |  | CN1CCN(c2ccc(-c3nn(-c4c(F)cccc4F)c4cc[nH]c(=O)c34)cc2)C1=O [Example 240, 1-(2,6-difluorophenyl)-3-(4-(3-methyl-2-oxoimidazolidin-1-yl)phenyl)-1,5-dihydro-4H-pyrazolo[4,3-c]pyridin-4-one]
25 | 96 | 100 |  |  |  | C[C@H]1COCCN1c1ccc(-c2nn(-c3c(F)cccc3F)c3cc[nH]c(=O)c23)cc1 [Example 245, 1-(2,6-difluorophenyl)-3-(4-((3S)-3-methylmorpholin-4-yl)phenyl)-1,5-dihydro-4H-pyrazolo[4,3-c]pyridin-4-one]
26 | 86 | 88 |  |  |  | NC(=O)c1cc(-c2nn(-c3ccccn3)c3cc[nH]c(=O)c23)cs1 [Example 247, 4-(4-oxo-1-(pyridin-2-yl)-4,5-dihydro-1H-pyrazolo[4,3-c]pyridin-3-yl)thiophene-2-carboxamide]
